Data reported in patent publication US11524966B1 (Valo Early Discovery, Inc., priority 2017, dated 2022).

Target: T1, USP28 (USP28-5(1-1077)-TEV-6*His; LifeSensors) (Homo sapiens, UniProt Q96RU2)
T1 construct: construct USP28 (USP28-5(1-1077)-TEV-6*His; LifeSensors); TEV cleavage site (C); 6xHis (C); purchased LifeSensors
T1 sequence (Q96RU2 1-1077): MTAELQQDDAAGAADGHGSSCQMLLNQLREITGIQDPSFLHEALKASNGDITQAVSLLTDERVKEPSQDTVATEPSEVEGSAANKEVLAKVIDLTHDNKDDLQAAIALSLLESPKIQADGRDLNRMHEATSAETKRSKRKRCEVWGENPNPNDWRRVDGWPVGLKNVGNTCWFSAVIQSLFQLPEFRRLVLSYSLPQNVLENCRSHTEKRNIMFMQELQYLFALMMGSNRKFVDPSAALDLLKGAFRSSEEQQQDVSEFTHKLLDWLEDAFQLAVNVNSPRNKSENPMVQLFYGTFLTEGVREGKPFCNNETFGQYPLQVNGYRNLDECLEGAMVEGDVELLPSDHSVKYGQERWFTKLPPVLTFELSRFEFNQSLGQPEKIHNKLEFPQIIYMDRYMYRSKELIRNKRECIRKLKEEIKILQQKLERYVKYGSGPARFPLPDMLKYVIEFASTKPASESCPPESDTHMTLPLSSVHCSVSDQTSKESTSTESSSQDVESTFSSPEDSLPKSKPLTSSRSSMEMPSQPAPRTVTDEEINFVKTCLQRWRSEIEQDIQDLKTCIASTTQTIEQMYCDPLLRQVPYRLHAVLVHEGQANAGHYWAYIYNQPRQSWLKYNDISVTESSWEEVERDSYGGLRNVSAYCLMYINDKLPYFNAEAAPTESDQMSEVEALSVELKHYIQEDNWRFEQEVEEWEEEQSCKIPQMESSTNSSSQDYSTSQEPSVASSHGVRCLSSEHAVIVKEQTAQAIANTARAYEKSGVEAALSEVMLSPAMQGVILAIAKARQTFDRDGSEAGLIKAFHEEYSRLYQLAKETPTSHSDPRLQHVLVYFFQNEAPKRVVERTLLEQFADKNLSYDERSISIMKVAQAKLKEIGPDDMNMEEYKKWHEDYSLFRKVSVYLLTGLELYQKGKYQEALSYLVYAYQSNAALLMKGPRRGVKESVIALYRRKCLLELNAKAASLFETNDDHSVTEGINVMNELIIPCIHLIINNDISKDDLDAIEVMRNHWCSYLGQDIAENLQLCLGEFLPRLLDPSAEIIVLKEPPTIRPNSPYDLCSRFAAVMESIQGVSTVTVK
Assay: Ubiquitin-Rhodamine 110 Assay for USP28 Activity, Example A-1(b)
Type: biochemical
Conditions: Ubiquitin-Rhodamine 110 assay, Example A-1(b)
In short: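 Single-point screening used 10 μM compound with 90 min room-temperature incubation; follow-up dose-responses (25 μM top, 3-fold) used 75 pM USP28 1-1077 construct, 30 min compound preincubation, 25 nM Ub-Rh110, 20 min reaction, citric acid quench. Rh110 fluorescence normalised to no-enzyme and DMSO controls; IC50 from 4-parameter logistic fit.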

Cc1ccc2c(N)c(C(=O)N[C@H]3COc4cc(N5C[C@@H](N)[C@@H](F)C5)ccc4C3)sc2n1 (single isomer, unassigned) [Example 3-5]
USP28 A-1(b) IC50 range: +++ (0.05-0.2 μM)

Cc1ccc2c(N)c(C(=O)N[C@H]3COc4cc(N5C[C@@H](F)[C@@H](N)C5)ccc4C3)sc2n1 (single isomer, unassigned) [Example 3-6]
USP28 A-1(b) IC50 range: ++ (0.2-2 μM)
